Patent US10646595B2, “Porphyrin compounds and their use as MRI contrast agents” (THE GOVERNING COUNCIL OF THE UNIVERSITY OF TORONTO, priority 2013, dated 2020)
Where two headings read alike, the source gives them in different places.

Key:
[1] = In vivo T1-weighted MRI in rats on 3T clinical scanner after intravenous injection; settings: 0.05 mmol Mn/kg i.v.
Description: (§1) MnPs MnTCP and (MnTPPS3)2 were administrated in rats and submitted for MRI studies on a 3T clinical scanner (Philips Achieva), with MnTPPS as a reference, and found to be efficient T1 CAs for in vivo applications, MnTCP and (MnTPPS3)2. A relatively low dose, 0.05 mmol Mn/kg (typical dose for clinical Gd-based CAs is ˜0.1 mmol Gd/kg) was chosen based on the in vitro relaxivity values described above.
(§2) The desired rapid clearance of MnTCP via renal filtration was further confirmed by urine sample analysis. The characteristic reddish color of MnPs was clearly visible by eye in the urine samples. The concentrations of MnPs can be accurately quantified by both UV-vis and Mn atomic absorption (Mn AA) spectroscopic analyses. Very high concentrations of MnP were detected in urine 60 minutes (11.7 μM) after injection. […] Moreover, a significant amount of MnTPPS (1.12 μM) could still be detected in urine 24 hours post-injection. […] The exclusion of the renal metabolic pathway for (MnTPPS3)2 was further confirmed by urine sample analysis.

[2] = Urine sample analysis by UV-vis and Mn atomic absorption after injection in rats; type: in vivo; settings: 0.05 mmol Mn/kg i.v.
Description: as §1, §2

[3] = NMRD profiles, field-dependent T1 relaxivity, field cycling NMR relaxometer 0 to 1 T; type: physicochemical; settings: for T1 relaxivity per Mn(III) or Gd(III), NMRD comparison: fields above ~0.2 T, compared among MnTPPS, MnTCP, (MnTPPS3)2 and Gd-DTPA
Description: T1 relaxivity values were measured per Mn(III) or Gd(III) up to 1 T.

[4] = T1 and T2 relaxivities and phantom images at 3 T on clinical MRI scanner; type: physicochemical; settings: for r1 (T1 relaxivity): clinical MRI scanner, inversion-recovery spin-echo, 25° C. per FIG. 3
Description: (A) A schematic diagram of how the solutions are placed. (B) The corresponding phantom images produced by the 3 T scanner.
Relaxivities of MnPs at 3 T were measured on a clinical MRI scanner (Philips Achieva). Each of the four CAs were prepared in a series of increasing concentrations, 0, 0.05, 0.1, 0.2 and 0.5 mM, and imaged using an inversion-recovery spin-echo pulse sequence with varied inversion times TI and a multi-echo spin-echo sequence with varied echo times TE. […] The r1 values in Table 1 were derived by calculating T1 relaxation times from the inversion-recovery images and then linearly fitting the T1 relaxation rates to obtain the relaxivity r1. T2 relaxivities of the MnPs were also calculated and are listed in […]

[5] = 37° C., cited from earlier work

time for relocation of majority of kidney enhancement into the bladder ([1]; 3 T MRI) | time to accumulation in the kidney ([1]; post injection, 3 T MRI) [min] | concentration in urine ([2]; 60 minutes after injection) [µM] | presence in urine sample ([2]; about 24 h post injection) | concentration in urine ([2]; 24 hours post-injection) [µM] | Molecule | T1 relaxivity, NMRD comparison ([3]; at clinical field strengths) | T1 relaxivity per Mn(III) or Gd(III), NMRD comparison [3] | relaxivity compared with Gd-DTPA [4] | r1 (T1 relaxivity) [4] [mM⁻¹ s⁻¹] | liver enhancement ([1]; 3 T MRI) | persistence of kidney T1 enhancement signal ([1]; 3 T MRI) | relaxivity plateau ([5]; up to 1 T) [mM⁻¹ s⁻¹] | field of relaxivity peak [5] [T] | enhancement in the blood vessels and in the heart ([1]; 3 T MRI) | bladder enhancement ([1]; over the three days of the experimental period) | MnP signal in urine by Mn-AA or UV-vis ([2]; over the 72 hour post-injection period) | field of relaxivity peak ([3]; NMRD profile) [T] | signal intensity on T1 weighted phantom images ([4]; 25° C., samples at the same concentration)
within an hour | ≤ 10 | 11.7 | Absence |  | O=C(O)c1c2nc(c(C(=O)O)c3ccc([n-]3)c(C(=O)O)c3nc(c(C(=O)O)c4ccc1[n-]4)C=C3)C=C2.[Cl-].[Mn+3] [MnTCP, [5,10,15,20-tetrakis(carboxy)porphyrinato]manganese(III) Chloride] | lower relaxivity than MnTPPS | substantially higher than Gd-DTPA | significantly higher relaxivity than Gd-DTPA | 7.90 |  |  |  |  |  |  |  |  | 
 |  | 4.41 |  | 1.12 | MnTPPS [reference compound] |  |  |  | 8.83 | clear liver enhancement | still visible in the image 1 day post-injection | > 10 | 0.2 |  |  |  |  | 
 |  |  |  |  | O=S(=O)([O-])c1ccc(C2=C3C=CC4=[N+]3[Mn]35[n]6c2ccc6C(c2ccc(S(=O)(=O)[O-])cc2)=C2C=CC(=[N+]23)C(c2ccc(S(=O)(=O)[O-])cc2)=c2ccc([n]25)=C4c2ccc(-c3ccc(C4=C5C=CC6=[N+]5[Mn]57[n]8c4ccc8C(c4ccc(S(=O)(=O)[O-])cc4)=C4C=CC(=[N+]45)C(c4ccc(S(=O)(=O)[O-])cc4)=c4ccc([n]47)=C6c4ccc(S(=O)(=O)[O-])cc4)cc3)cc2)cc1 (centres unmarked) [(MnTPPS3)2] |  | highest relaxivity per Mn |  | 14.1 | significant liver enhancement |  |  |  | relatively long-lasting enhancement | no bladder enhancement was detected | No MnP signal was found | ~1 | highest signal intensity
